Measured values reported in US20130090315A1 (priority 2011, published 2013).

Key:
[1] = target: T1, progesterone receptor (PR) (Homo sapiens, UniProt P06401); conditions: cited from earlier work
T1 sequence (P06401 1-933): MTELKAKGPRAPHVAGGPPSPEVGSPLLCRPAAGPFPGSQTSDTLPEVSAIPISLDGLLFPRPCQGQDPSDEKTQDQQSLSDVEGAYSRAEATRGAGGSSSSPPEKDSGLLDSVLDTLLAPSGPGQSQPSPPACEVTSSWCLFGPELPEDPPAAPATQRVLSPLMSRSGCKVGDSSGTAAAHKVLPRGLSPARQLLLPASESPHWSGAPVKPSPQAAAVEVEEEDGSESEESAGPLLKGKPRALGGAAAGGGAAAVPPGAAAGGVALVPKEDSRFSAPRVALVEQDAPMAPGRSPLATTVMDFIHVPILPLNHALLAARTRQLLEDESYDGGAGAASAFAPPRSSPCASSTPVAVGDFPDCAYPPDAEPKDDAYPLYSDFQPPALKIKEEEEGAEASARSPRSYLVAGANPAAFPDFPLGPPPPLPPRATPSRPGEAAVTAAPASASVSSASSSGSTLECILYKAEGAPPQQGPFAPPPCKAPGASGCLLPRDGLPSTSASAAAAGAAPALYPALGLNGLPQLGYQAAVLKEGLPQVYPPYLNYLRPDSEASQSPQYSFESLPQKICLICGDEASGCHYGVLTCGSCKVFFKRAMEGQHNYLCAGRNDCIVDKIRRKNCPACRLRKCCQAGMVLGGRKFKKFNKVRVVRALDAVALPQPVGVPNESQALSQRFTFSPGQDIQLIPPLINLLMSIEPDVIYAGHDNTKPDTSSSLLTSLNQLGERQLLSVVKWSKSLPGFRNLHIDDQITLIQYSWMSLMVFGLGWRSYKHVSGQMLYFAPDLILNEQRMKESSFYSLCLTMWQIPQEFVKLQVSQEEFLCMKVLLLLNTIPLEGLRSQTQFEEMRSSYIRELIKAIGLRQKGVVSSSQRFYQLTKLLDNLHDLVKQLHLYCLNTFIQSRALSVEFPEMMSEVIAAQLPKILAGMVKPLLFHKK

glutathione reductase = conditions: 72 hours post-injury, compared to all other groups, FIG. 2, p<0.01; cited from earlier work
rats suffering from TBI = conditions: 16 mg/kg, 72 hours post-injury, FIG. 1, p<0.05; cited from earlier work
rats following injury = conditions: cited from earlier work
males = conditions: in males; cited from earlier work
[2] = system: moderate to severe TBI patients; conditions: cited from earlier work
[3] = system: rats that have suffered a concussion; test: Morris Water Maze latency to platform in mTBI (concussion) model; assay type: in vivo; conditions: versus vehicle-injured rats, FIG. 8

SMILES | activation of PR-mediated transcription [1] | anti-oxidant activity of glutathione reductase (glutathione reductase) | brain water content (measure of edema) (rats suffering from TBI) | factors of cell death (caspase-3) and gliosis (GFAP) (rats following injury) | edema in both rodent sexes (rats following injury; both rodent sexes) | inflammatory factors (TNF-α and IL-β) (rats following injury) | Neurological Severity Score (motor and cognitive functioning) (rats following injury; rats) | conversion of testosterone to dihydrotestosterone (males) | size of reproductive organs (males) | spermatogenesis (males) | 30 days post-injury outcomes (Glasgow Outcome Scale-Extended, Disability Rating Scale), moderate TBI ([2]; moderate TBI patients, 30 days post-injury) | reduction in mortality ([2]; moderate to severe TBI patients, 72 hours of continuous intravenous Prog) [%] | 30 days post-injury outcomes (Glasgow Outcome Scale-Extended, Disability Rating Scale), severe brain injuries ([2]; patients with severe brain injuries, 30 days post-injury) | neurological outcomes at six months ([2]; severe TBI patients, six months) | latency to platform, post-acute administration ([3]; 15 minutes post mTBI) | latency to platform, prophylactic administration ([3]; 15 minutes prior to mTBI)
CC(=O)[C@@H]1CC[C@@H]2[C@H]3CCC4=CC(=O)CC[C@@]4(C)[C@@H]3CC[C@]21C [ent-Prog, ent-progesterone] | does not activate PR-mediated transcription | significantly increases the anti-oxidant activity of glutathione reductase | normalizes brain water content | – | – | – | – | – | – | – | – | – | – | – | – | –
CC(=O)[C@H]1CC[C@H]2[C@@H]3CC[C@H]4C[C@H](O)CC[C@]4(C)[C@H]3CC[C@]12C [ALLO, allopregnanolone] | – | – | normalizes brain water content | decreased of the presence of the factors of cell death (caspase-3) and gliosis (GFAP) | – | – | – | – | – | – | – | – | – | – | – | –
CC(=O)[C@H]1CC[C@H]2[C@@H]3CCC4=CC(=O)CC[C@]4(C)[C@H]3CC[C@]12C [Prog, progesterone] | – | – | normalizes brain water content | decreased of the presence of the factors of cell death (caspase-3) and gliosis (GFAP) | effectively attenuates edema | inhibiting inflammatory factors (TNF-α and IL-β) | significant improvements | inhibits the conversion of testosterone to dihydrotestosterone | reduces the size of reproductive organs | suppresses spermatogenesis | better outcomes | 50 | little measurable difference | better neurological outcomes long-term | decreases latency to platform | decreases latency to platform
